ChEMBL document CHEMBL3865783, “Synthesis and antimicrobial activity against Pseudomonas aeruginosa of macrocyclic β-hairpin peptidomimetic antibiotics containing N-methylated amino acids” (Bioorg Med Chem, 2016)

Assays:
[1] = biological target: T1, LPS-assembly protein LptD (Pseudomonas aeruginosa (strain ATCC 15692 / DSM 22644 / CIP 104116 /JCM 14847 / LMG 12228 / 1C / PRS 101 / PAO1)) (UniProt Q9I5U2); assay: Inhibition of LptD in Pseudomonas aeruginosa PAO1 assessed as microbial growth inhibition by microbroth dilution method
T1 sequence (whole entry): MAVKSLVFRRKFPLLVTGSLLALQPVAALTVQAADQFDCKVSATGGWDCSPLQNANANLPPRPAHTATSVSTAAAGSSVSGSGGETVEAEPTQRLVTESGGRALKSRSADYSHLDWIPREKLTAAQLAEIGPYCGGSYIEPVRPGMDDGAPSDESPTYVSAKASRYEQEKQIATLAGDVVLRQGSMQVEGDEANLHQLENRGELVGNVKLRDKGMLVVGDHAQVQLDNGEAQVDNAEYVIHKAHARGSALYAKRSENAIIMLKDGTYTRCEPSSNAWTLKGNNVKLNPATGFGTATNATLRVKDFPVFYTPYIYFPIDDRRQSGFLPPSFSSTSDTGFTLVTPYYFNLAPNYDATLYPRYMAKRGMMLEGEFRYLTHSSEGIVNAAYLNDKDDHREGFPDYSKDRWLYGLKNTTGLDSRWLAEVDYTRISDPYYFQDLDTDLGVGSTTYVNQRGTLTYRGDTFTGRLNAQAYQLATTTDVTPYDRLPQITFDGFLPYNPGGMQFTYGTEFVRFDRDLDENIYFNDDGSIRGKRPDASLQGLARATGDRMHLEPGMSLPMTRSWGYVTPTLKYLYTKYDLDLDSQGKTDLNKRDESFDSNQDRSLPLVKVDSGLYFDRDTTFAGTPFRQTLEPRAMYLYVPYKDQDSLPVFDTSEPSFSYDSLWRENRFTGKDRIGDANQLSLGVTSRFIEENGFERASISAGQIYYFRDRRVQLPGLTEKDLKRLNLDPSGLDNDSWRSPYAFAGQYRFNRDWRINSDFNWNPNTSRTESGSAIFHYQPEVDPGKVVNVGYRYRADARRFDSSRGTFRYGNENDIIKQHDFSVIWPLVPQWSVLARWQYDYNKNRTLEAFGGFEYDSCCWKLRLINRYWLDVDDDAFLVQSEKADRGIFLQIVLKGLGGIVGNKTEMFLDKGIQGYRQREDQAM

Pseudomonas aeruginosa = assay: Inhibition of LptD in Pseudomonas aeruginosa ATCC 27853 assessed as microbial growth inhibition by microbroth dilution method

Structure (SMILES)	MIC [1]	MIC (Pseudomonas aeruginosa)
CC(C)C[C@@H]1NC(=O)[C@H](Cc2c[nH]c3ccccc23)NC(=O)[C@H]([C@@H](C)O)NC(=O)[C@@H]2CCCN2C(=O)[C@H]2CCCN2C(=O)[C@H](CCCCN)NC(=O)[C@H](C)NC(=O)[C@H](CCN)NC(=O)[C@H](CCCN)NC(=O)[C@H](Cc2c[nH]c3ccccc23)NC(=O)[C@H](CCCNC(=N)N)NC(=O)[C@@H](CCCCN)NC(=O)[C@H](CCCN)NC(=O)[C@H](CCN)N(C)C1=O	0.009 µg/mL	0.005 µg/mL
CC(C)C[C@@H]1NC(=O)[C@H](Cc2c[nH]c3ccccc23)NC(=O)[C@H]([C@@H](C)O)NC(=O)[C@@H]2CCCN2C(=O)[C@H]2CCCN2C(=O)[C@H](CCCCN)NC(=O)[C@H](C)NC(=O)[C@H](CCN)NC(=O)[C@H](CCCN)NC(=O)[C@H](Cc2c[nH]c3ccccc23)NC(=O)[C@H](CCCNC(=N)N)NC(=O)[C@@H](CCCCN)NC(=O)[C@H](CCCN)NC(=O)[C@H](CCN)NC1=O	0.015 µg/mL	0.008 µg/mL
CC(C)C[C@@H]1NC(=O)[C@H](Cc2c[nH]c3ccccc23)NC(=O)[C@H]([C@@H](C)O)NC(=O)[C@@H]2CCCN2C(=O)[C@H]2CCCN2C(=O)[C@H](CCCCN)NC(=O)[C@H](C)NC(=O)[C@H](CCN)N(C)C(=O)[C@H](CCCN)NC(=O)[C@H](Cc2c[nH]c3ccccc23)NC(=O)[C@H](CCCNC(=N)N)NC(=O)[C@@H](CCCCN)NC(=O)[C@H](CCCN)NC(=O)[C@H](CCN)NC1=O	12 µg/mL	1 µg/mL
CC(C)C[C@@H]1NC(=O)[C@H](Cc2c[nH]c3ccccc23)NC(=O)[C@H]([C@@H](C)O)NC(=O)[C@@H]2CCCN2C(=O)[C@H]2CCCN2C(=O)[C@H](CCCCN)NC(=O)[C@H](C)NC(=O)[C@H](CCN)NC(=O)[C@H](CCCN)N(C)C(=O)[C@H](Cc2c[nH]c3ccccc23)NC(=O)[C@H](CCCNC(=N)N)NC(=O)[C@@H](CCCCN)NC(=O)[C@H](CCCN)NC(=O)[C@H](CCN)NC1=O	16 µg/mL	12 µg/mL
CC(C)C[C@@H]1NC(=O)[C@H](Cc2c[nH]c3ccccc23)NC(=O)[C@H]([C@@H](C)O)NC(=O)[C@@H]2CCCN2C(=O)[C@H]2CCCN2C(=O)[C@H](CCCCN)NC(=O)[C@H](C)NC(=O)[C@H](CCN)NC(=O)[C@H](CCCN)NC(=O)[C@H](Cc2c[nH]c3ccccc23)NC(=O)[C@H](CCCNC(=N)N)NC(=O)[C@@H](CCCCN)NC(=O)[C@H](CCCN)N(C)C(=O)[C@H](CCN)NC1=O	0.008 µg/mL	0.009 µg/mL
CC(C)C[C@@H]1NC(=O)[C@H](Cc2c[nH]c3ccccc23)NC(=O)[C@H]([C@@H](C)O)NC(=O)[C@@H]2CCCN2C(=O)[C@H]2CCCN2C(=O)[C@H](CCCCN)NC(=O)[C@H](C)N(C)C(=O)[C@H](CCN)NC(=O)[C@H](CCCN)NC(=O)[C@H](Cc2c[nH]c3ccccc23)NC(=O)[C@H](CCCNC(=N)N)NC(=O)[C@@H](CCCCN)NC(=O)[C@H](CCCN)NC(=O)[C@H](CCN)NC1=O	> 64 µg/mL	> 64 µg/mL
CC(C)C[C@@H]1NC(=O)[C@H](Cc2c[nH]c3ccccc23)NC(=O)[C@H]([C@@H](C)O)NC(=O)[C@@H]2CCCN2C(=O)[C@H]2CCCN2C(=O)[C@H](CCCCN)N(C)C(=O)[C@H](C)NC(=O)[C@H](CCN)NC(=O)[C@H](CCCN)NC(=O)[C@H](Cc2c[nH]c3ccccc23)NC(=O)[C@H](CCCNC(=N)N)NC(=O)[C@@H](CCCCN)NC(=O)[C@H](CCCN)NC(=O)[C@H](CCN)NC1=O	> 64 µg/mL	> 64 µg/mL
CC(C)C[C@H]1C(=O)N[C@@H](CCN)C(=O)N[C@@H](CCCN)C(=O)N[C@H](CCCCN)C(=O)N[C@@H](CCCNC(=N)N)C(=O)N[C@@H](Cc2c[nH]c3ccccc23)C(=O)N[C@@H](CCCN)C(=O)N[C@@H](CCN)C(=O)N[C@@H](C)C(=O)N[C@@H](CCCCN)C(=O)N2CCC[C@@H]2C(=O)N2CCC[C@H]2C(=O)N[C@@H]([C@@H](C)O)C(=O)N[C@@H](Cc2c[nH]c3ccccc23)C(=O)N1C	> 64 µg/mL	> 64 µg/mL
CC(C)C[C@@H]1NC(=O)[C@H](Cc2c[nH]c3ccccc23)NC(=O)[C@H]([C@@H](C)O)N(C)C(=O)[C@@H]2CCCN2C(=O)[C@H]2CCCN2C(=O)[C@H](CCCCN)NC(=O)[C@H](C)NC(=O)[C@H](CCN)NC(=O)[C@H](CCCN)NC(=O)[C@H](Cc2c[nH]c3ccccc23)NC(=O)[C@H](CCCNC(=N)N)NC(=O)[C@@H](CCCCN)NC(=O)[C@H](CCCN)NC(=O)[C@H](CCN)NC1=O	0.38 µg/mL	0.19 µg/mL
CC(C)C[C@@H]1NC(=O)[C@H](Cc2c[nH]c3ccccc23)N(C)C(=O)[C@H]([C@@H](C)O)NC(=O)[C@@H]2CCCN2C(=O)[C@H]2CCCN2C(=O)[C@H](CCCCN)NC(=O)[C@H](C)NC(=O)[C@H](CCN)NC(=O)[C@H](CCCN)NC(=O)[C@H](Cc2c[nH]c3ccccc23)NC(=O)[C@H](CCCNC(=N)N)NC(=O)[C@@H](CCCCN)NC(=O)[C@H](CCCN)NC(=O)[C@H](CCN)NC1=O	> 64 µg/mL	> 64 µg/mL
CC(C)C[C@@H]1NC(=O)[C@H](Cc2c[nH]c3ccccc23)NC(=O)[C@H]([C@@H](C)O)NC(=O)[C@@H]2CCCN2C(=O)[C@H]2CCCN2C(=O)[C@H](CCCCN)NC(=O)[C@H](C)NC(=O)[C@H](CCN)NC(=O)[C@H](CCCN)NC(=O)[C@H](Cc2c[nH]c3ccccc23)NC(=O)[C@H](CCCNC(=N)N)NC(=O)[C@@H](CCCCN)N(C)C(=O)[C@H](CCCN)NC(=O)[C@H](CCN)NC1=O	0.025 µg/mL	0.012 µg/mL
CC(C)C[C@@H]1NC(=O)[C@H](Cc2c[nH]c3ccccc23)NC(=O)[C@H]([C@@H](C)O)NC(=O)[C@@H]2CCCN2C(=O)[C@H]2CCCN2C(=O)[C@H](CCCCN)NC(=O)[C@H](C)NC(=O)[C@H](CCN)NC(=O)[C@H](CCCN)NC(=O)[C@H](Cc2c[nH]c3ccccc23)NC(=O)[C@H](CCCNC(=N)N)N(C)C(=O)[C@@H](CCCCN)NC(=O)[C@H](CCCN)NC(=O)[C@H](CCN)NC1=O	0.75 µg/mL	0.38 µg/mL
CC(C)C[C@@H]1NC(=O)[C@H](Cc2c[nH]c3ccccc23)NC(=O)[C@H]([C@@H](C)O)NC(=O)[C@@H]2CCCN2C(=O)[C@H]2CCCN2C(=O)[C@H](CCCCN)NC(=O)[C@H](C)NC(=O)[C@H](CCN)NC(=O)[C@H](CCCN)NC(=O)[C@H](Cc2c[nH]c3ccccc23)N(C)C(=O)[C@H](CCCNC(=N)N)NC(=O)[C@@H](CCCCN)NC(=O)[C@H](CCCN)NC(=O)[C@H](CCN)NC1=O	0.13 µg/mL	0.023 µg/mL
